The values that follow come from ChEMBL document CHEMBL1130434, “Simultaneous pharmacokinetic screening of a mixture of compounds in the dog using API LC/MS/MS analysis for increased throughput” (J Med Chem, 1997).

Each structure is given as a SMILES string.

A short description of data set [1]: Clearance of compound when administered intravenously as a mixture (five-in-one dose) to a single dog. Format: ADME, organism-based, Canis lupus familiaris. The conditions noted are these: in vivo, iv.
The nature of data set [2]: Clearance of compound when administered intravenously as an individual dose to a single dog. The class given is ADME, organism-based, Canis lupus familiaris. The conditions noted are these: in vivo, iv.
Data set [3] can be described thus: Elimination half-life of compound when administered intravenously as a mixture (five-in-one dose) to a single dog. Format: ADME, organism-based. The settings on record: in vivo, iv.
A short description of data set [4]: Elimination half-life of compound when administered intravenously as an individual dose to a single dog. Format: ADME, organism-based. The settings on record: in vivo, iv.
Data set [5] in a line: Steady-state volume of distribution of compound when administered intravenously as a mixture (five-in-one dose) to a single dog. The class given is ADME, organism-based, Canis lupus familiaris. The settings on record: in vivo, iv, read-out: Vss.
A short description of data set [6]: Steady-state volume of distribution of compound when administered intravenously as an individual dose to a single dog. The class given is ADME, organism-based, Canis lupus familiaris. The settings on record: in vivo, iv, read-out: Vss.

With `CNC(=O)CN(C)S(=O)(=O)c1cc(CCN2CCC(c3nc(COCC(F)(F)F)c(-c4ccc(F)cc4)o3)CC2)ccc1OC`, the figures for the clearance in data set [1] and in data set [2] were 11.2 mL/min/kg and 11.6 mL/min/kg, respectively. In addition, the half-life (as a rule, the time needed for the level to fall by half in the phase considered) in data set [3] was 3 h; in data set [4], 3.4 h. The Vd came out at 2.86 L/kg in data set [5] and 2.91 L/kg in data set [6].
Consider `CNC(=O)CN(C)S(=O)(=O)c1cc(CCN2CCC(c3nc(COCC(F)(F)F)c(-c4ccccc4)o3)CC2)ccc1OC`, for which the clearance – broadly, a measure of how efficiently the substance is removed, as volume per time – in data set [1] came out at 17.3 mL/min/kg; in data set [2] it was 28.9 mL/min/kg. Also, the half-life in data set [3] is 2.4 h; in data set [4], 2.1 h. The values for the Vd in data set [5] and in data set [6] were 2.76 L/kg and 3.46 L/kg, respectively.
As to `COc1ccc(CCN2CCC(c3nc(COCC(F)(F)F)c(-c4ccccc4)o3)CC2)cc1S(N)(=O)=O`, the figures for the clearance in data set [1] and in data set [2] were 5.9 mL/min/kg and 5 mL/min/kg, respectively. Also, the half-life is 1.5 h in data set [3] and 1.4 h in data set [4]. Also, the values for the Vd in data set [5] and in data set [6] were 0.473 L/kg and 0.382 L/kg, respectively.
With `COc1ccc(CCN2CCC(c3nc(COCC(F)(F)F)c(-c4ccc(F)cc4)o3)CC2)cc1S(N)(=O)=O`, the clearance in data set [1] was 0.86 mL/min/kg; in data set [2], 0.9 mL/min/kg. Besides, the half-life in data set [3] is 4.9 h; in data set [4] it was 4.2 h. Moreover, the Vd came out at 0.33 L/kg in data set [5] and 0.243 L/kg in data set [6].
Turning to `COc1ccc(CCN2CCC(c3nc(COCC(F)(F)F)c(-c4ccccc4)o3)CC2)cc1S(=O)(=O)NCCNC(C)=O`, the clearance in data set [1] was 18.7 mL/min/kg; in data set [2], 10.3 mL/min/kg. For the same compound, the half-life in data set [3] was 2.9 h; in data set [4] it was 2.6 h. For the same compound, the Vd was 2.83 L/kg in data set [5] and 0.6 L/kg in data set [6].
